Experimental data taken from ChEMBL document CHEMBL3885881, “DrugMatrix”.

Species on record: Rattus norvegicus
Assay: DrugMatrix - Regimen: Daily Repeat
Format: toxicity, organism-based, Sprague-Dawley
Design: regimen Daily Repeat, gender Male, age 6-8 weeks
Settings: in vivo, po, route oral GAVAGE, vehicle 100 % WATER; for ABSOLUTE BASOPHIL / ABSOLUTE EOSINOPHIL / ABSOLUTE LYMPHOCYTE / ABSOLUTE MONOCYTE / ABSOLUTE SEGMENTED NEUTROPHIL / BASOPHIL / EOSINOPHIL / ERYTHROCYTE COUNT / HEMATOCRIT / HEMOGLOBIN / LEUKOCYTE COUNT / LYMPHOCYTE / MEAN CORPUSCULAR HEMOGLOBIN / MEAN CORPUSCULAR HEMOGLOBIN CONCENTRATION / MONOCYTE / NEUTROPHIL / NUCLEATED RED BLOOD CELLS / PLATELET COUNT: tissue Blood; for ALANINE AMINOTRANSFERASE / ALBUMIN / ALKALINE PHOSPHATASE / ASPARTATE AMINOTRANSFERASE / BLOOD UREA NITROGEN / CARBON DIOXIDE / CHLORIDE / CHOLESTEROL / CREATINE PHOSPHOKINASE / CREATININE / GLUCOSE / LACTATE DEHYDROGENASE / LIPASE / PHOSPHORUS / POTASSIUM / SODIUM / TOTAL BILIRUBIN / TOTAL PROTEIN / URIC ACID: tissue Plasma
[1] = 0 mg/kg, 72 h, dose level Control, time 3 day
[2] = 0 mg/kg, 120 h, dose level Control, time 5 day
[3] = 35 mg/kg, 72 h, dose level Low, time 3 day

Nc1ccn([C@@H]2CS[C@H](CO)O2)c(=O)n1 [LAMIVUDINE]
ABSOLUTE BASOPHIL [1]: 0 CELLS/uL
ABSOLUTE EOSINOPHIL [1]: 0 CELLS/uL
ABSOLUTE LYMPHOCYTE [1]: 8482.5 CELLS/uL
ABSOLUTE MONOCYTE [1]: 63.83 CELLS/uL
ABSOLUTE SEGMENTED NEUTROPHIL [1]: 887 CELLS/uL
BASOPHIL [1]: 0%
EOSINOPHIL [1]: 0%
ERYTHROCYTE COUNT [1]: 5.49 x10E6/uL
HEMATOCRIT [1]: 34.5%
HEMOGLOBIN [1]: 13.33 G/DL
LEUKOCYTE COUNT [1]: 9.43 x10E3/uL
LYMPHOCYTE [1]: 90.17%
MEAN CORPUSCULAR HEMOGLOBIN [1]: 24.3 pg
MEAN CORPUSCULAR HEMOGLOBIN CONCENTRATION [1]: 38.63 G/DL
MONOCYTE [1]: 0.67%
NEUTROPHIL [1]: 9.17%
NUCLEATED RED BLOOD CELLS [1]: 0.67 /100WBC
PLATELET COUNT [1]: 1022.83 x10E3/uL
ALANINE AMINOTRANSFERASE [1]: 50.5 u/L
ALBUMIN [1]: 4.08 G/DL
ALKALINE PHOSPHATASE [1]: 368.33 u/L
ASPARTATE AMINOTRANSFERASE [1]: 87.5 u/L
BLOOD UREA NITROGEN [1]: 12.83 mg/dL
CARBON DIOXIDE [1]: 32.83 mmol/L
CHLORIDE [1]: 99.67 MEQ/L
CHOLESTEROL [1]: 79.67 mg/dL
CREATINE PHOSPHOKINASE [1]: 585 u/L
CREATININE [1]: 0.22 mg/dL
GLUCOSE [1]: 135.67 mg/dL
LACTATE DEHYDROGENASE [1]: 171 u/L
LIPASE [1]: 9.5 u/L
PHOSPHORUS [1]: 11.18 mg/dL
POTASSIUM [1]: 6.25 MEQ/L
SODIUM [1]: 144.87 MEQ/L
TOTAL BILIRUBIN [1]: 0.2 mg/dL
TOTAL PROTEIN [1]: 6.08 G/DL
URIC ACID [1]: 0.65 mg/dL
ABSOLUTE BASOPHIL [2]: 0 CELLS/uL
ABSOLUTE EOSINOPHIL [2]: 14.5 CELLS/uL
ABSOLUTE LYMPHOCYTE [2]: 7596.17 CELLS/uL
ABSOLUTE MONOCYTE [2]: 69.67 CELLS/uL
ABSOLUTE SEGMENTED NEUTROPHIL [2]: 503 CELLS/uL
BASOPHIL [2]: 0%
EOSINOPHIL [2]: 0.17%
ERYTHROCYTE COUNT [2]: 5.49 x10E6/uL
HEMATOCRIT [2]: 34.72%
HEMOGLOBIN [2]: 13.47 G/DL
LEUKOCYTE COUNT [2]: 8.18 x10E3/uL
LYMPHOCYTE [2]: 92.17%
MEAN CORPUSCULAR HEMOGLOBIN [2]: 24.57 pg
MEAN CORPUSCULAR HEMOGLOBIN CONCENTRATION [2]: 38.82 G/DL
MONOCYTE [2]: 1%
NEUTROPHIL [2]: 6.67%
NUCLEATED RED BLOOD CELLS [2]: 0 /100WBC
PLATELET COUNT [2]: 1141 x10E3/uL
ALANINE AMINOTRANSFERASE [2]: 48.33 u/L
ALBUMIN [2]: 4.07 G/DL
ALKALINE PHOSPHATASE [2]: 395.67 u/L
ASPARTATE AMINOTRANSFERASE [2]: 85.67 u/L
BLOOD UREA NITROGEN [2]: 15.83 mg/dL
CARBON DIOXIDE [2]: 31.33 mmol/L
CHLORIDE [2]: 100.83 MEQ/L
CREATINE PHOSPHOKINASE [2]: 248.33 u/L
CREATININE [2]: 0.2 mg/dL
GLUCOSE [2]: 135.67 mg/dL
LACTATE DEHYDROGENASE [2]: 141.33 u/L
LIPASE [2]: 9.5 u/L
PHOSPHORUS [2]: 10.73 mg/dL
POTASSIUM [2]: 6.07 MEQ/L
SODIUM [2]: 145.35 MEQ/L
TOTAL BILIRUBIN [2]: 0.22 mg/dL
TOTAL PROTEIN [2]: 6.12 G/DL
URIC ACID [2]: 0.63 mg/dL
ABSOLUTE BASOPHIL [3]: 0 CELLS/uL
ABSOLUTE EOSINOPHIL [3]: 40.67 CELLS/uL
ABSOLUTE LYMPHOCYTE [3]: 11136 CELLS/uL
ABSOLUTE MONOCYTE [3]: 119.67 CELLS/uL
ABSOLUTE SEGMENTED NEUTROPHIL [3]: 470.33 CELLS/uL
BASOPHIL [3]: 0%
EOSINOPHIL [3]: 0.33%
ERYTHROCYTE COUNT [3]: 5.47 x10E6/uL
HEMATOCRIT [3]: 34.33%
HEMOGLOBIN [3]: 13.4 G/DL
LEUKOCYTE COUNT [3]: 11.77 x10E3/uL
LYMPHOCYTE [3]: 94.67%
MEAN CORPUSCULAR HEMOGLOBIN [3]: 24.5 pg
MEAN CORPUSCULAR HEMOGLOBIN CONCENTRATION [3]: 39.03 G/DL
MONOCYTE [3]: 1%
NEUTROPHIL [3]: 4%
NUCLEATED RED BLOOD CELLS [3]: 0 /100WBC
PLATELET COUNT [3]: 1274 x10E3/uL
ALANINE AMINOTRANSFERASE [3]: 51.67 u/L
ALBUMIN [3]: 4.27 G/DL
ALKALINE PHOSPHATASE [3]: 390.33 u/L
ASPARTATE AMINOTRANSFERASE [3]: 80.67 u/L
BLOOD UREA NITROGEN [3]: 12.33 mg/dL
CARBON DIOXIDE [3]: 34.33 mmol/L
CHLORIDE [3]: 98.33 MEQ/L
CHOLESTEROL [3]: 78 mg/dL
CREATINE PHOSPHOKINASE [3]: 237.33 u/L
CREATININE [3]: 0.2 mg/dL
GLUCOSE [3]: 124.67 mg/dL
LACTATE DEHYDROGENASE [3]: 167.33 u/L
LIPASE [3]: 10 u/L
PHOSPHORUS [3]: 10.9 mg/dL
POTASSIUM [3]: 6.42 MEQ/L
SODIUM [3]: 144.2 MEQ/L
TOTAL BILIRUBIN [3]: 0.13 mg/dL
URIC ACID [3]: 0.87 mg/dL
